Results from patent US6369057B1, “Quinoxalines, processes for their preparation and their use” (Aventis Pharma Deutschland GmbH, priority 1991, dated 2002).
Converted amounts (≈) assume the structure as drawn.

biological target: T1, HIV reverse transcriptase (RT) (Human immunodeficiency virus type 1 group M subtype B, UniProt P03366); test: Assay for HIV reverse transcriptase inhibition (scintillation proximity assay); assay type: biochemical; details: RT from HIV cloned in E. coli; SPA, 60 minutes (37° C.)
T1 construct: The enzyme RT (from HIV cloned in E. coli); purchased HT-Biotechnology Ltd, Cambridge, UK; host or cells: E. coli
Protocol: Assay of the Substances for HIV Reverse Transcriptase Inhibition
The activity of reverse transcriptase (RT) was determined with the aid of a scintillation proximity assay (SPA).
The reagent kit for the RT-SPA was obtained from Amersham/Buchler (Braunschweig).
The enzyme RT (from HIV cloned in E. coli) originated from HT-Biotechnology Ltd, Cambridge, UK.
The assay was carried out using the manufacturer's (Amersham) protocol manual, with the following modifications: bovine serum albumin was added to the assay buffer to give an end concentration of 0.5 mg/ml the assay was carried out in Eppendorf reaction vessels, using 100 μl volume per batch the manufacturer's RT concentrate (5000 U/ml) was diluted in Tris-HCl buffer 20 mM; pH 7.2; 30% of glycerol, to an activity of 15 U per ml the incubation time for the mixtures was 60 minutes (37° C.) after stopping the reaction and “developing” with the bead suspension, 130 μl of mixture were transferred to 4.5 ml of Tris-HCl buffer, 10 mM; pH 7.4; 0.15 M NaCl, and the tritium activity was measured by means of a [formula]-counter.
For a pre-assay for inhibitory activity, the substances were dissolved in DMSO (stock solution c=1 mg/ml), and tested as a 10^−1, 10^−2, 10^−3, etc., dilution in DMSO.
To determine IC50 values, the inhibitor stock solutions were diluted further in Tris-HCl buffer, 50 mM, pH 8, and tested in suitable concentrations.
The concentration corresponding to a 50% enzyme inhibition was determined from a plot of RT activity versus log Clnh.

Compound | Reverse Transcriptase Assay IC50
C=C(C)OC(=O)N1c2cc(OC)ccc2NC(=O)C1CSC (stereo not drawn) [Example 3-128] | 0.01 to 0.1 µg/mL
C=C(C)OC(=O)N1c2ccc(Cl)cc2NC(=S)C1(C)C [Example 7-12] | approx. 1 μg/ml
CCOC(=O)N1c2cc(Cl)ccc2NC(=S)C1(C)C [Example 7-24] | <0.01 µg/mL
CC(C)=CCN1c2cc(C)c(C)cc2NC(=S)C1(C)C [Example 7-16] | approx. 1 μg/ml
C=CCOC(=O)N1c2cc(Cl)ccc2NC(=S)C1C (stereo not drawn) [Example 7-10] | 0.11 µg/mL
C=CCSC(=O)N1c2cc(Cl)ccc2NC(=O)C1C (stereo not drawn) [Example 11-6] | 0.1 to 1 µg/mL
C=C(C)OC(=O)N1c2cc(Cl)ccc2NC(=S)C1CCC (stereo not drawn) [Example 7-17] | 0.01 to 0.1 µg/mL
CSCC1C(=O)Nc2ccc(Cl)cc2N1C(=O)OC(C)C (stereo not drawn) [Example 3-127] | 0.01 to 0.1 µg/mL
C=C(C)COC(=O)N1c2cc(Cl)ccc2NC(=O)C1C (stereo not drawn) [Example 11-7] | approx. 1 μg/ml
C=C(C)OC(=O)N1c2cc(Cl)ccc2NC(=O)C1CC(C)C (stereo not drawn) [Example 3-49] | approx. 1 μg/ml
CC1C(=O)Nc2ccc(Cl)cc2N1Cc1ccsc1 (stereo not drawn) [Example 10-34] | 0.1 to 1 µg/mL
CCCOC(=O)N1c2cc(Cl)ccc2NC(=S)C1(C)C [Example 7-25] | <0.01 µg/mL
C=C(C)OC(=O)N1c2cc(Cl)ccc2NC(=O)C1(C)C [Example 6-8] | 0.1 to 1 µg/mL
C=C(C)OC(=O)N1c2cc(Cl)ccc2NC(=O)C1C(C)C (stereo not drawn) [Example 3-37] | 0.1 to 1 µg/mL
C=C(C)OC(=O)N1c2cc(OC)ccc2NC(=S)C1CSC (stereo not drawn) [Example 7-30] | <0.01 µg/mL
CC1C(=O)Nc2ccc(Cl)cc2N1C(=O)SCc1ccccc1 (stereo not drawn) [Example 11-5] | 0.1 to 1 µg/mL
C=CCOC(=O)N1c2cc(Cl)ccc2NC(=O)C1CCC (stereo not drawn) [Example 3-35] | 0.1 to 1 µg/mL
CSCC1C(=S)Nc2ccc(Cl)cc2N1C(=O)OC(C)C (stereo not drawn) [Example 7-28] | <0.01 µg/mL
CSCCOC(=O)N1c2cc(Cl)ccc2NC(=O)C1C (stereo not drawn) [Example 11-13] | approx. 1 μg/ml
CC1C(=S)Nc2ccc(Cl)cc2N1Cc1ccccn1 (stereo not drawn) [Example 7-19] | 0.01 to 0.1 µg/mL
C=CCOC(=O)N1c2cc(Cl)ccc2NC(=S)C1CC (stereo not drawn) [Example 7-15] | 0.01 to 0.1 µg/mL
CSCC1C(=S)Nc2ccc(Cl)cc2N1Cc1ccccn1 (stereo not drawn) [Example 7-29] | 0.01 to 0.1 µg/mL
C=C(C)OC(=O)N1c2cc(Cl)ccc2NC(=O)C1CCC (stereo not drawn) [Example 3-34] | 0.1 to 1 µg/mL
C=CCOC(=O)N1c2cc(Cl)ccc2NC(=S)C1CCC (stereo not drawn) [Example 7-18] | 0.01 to 0.1 µg/mL
COc1ccc2c(c1)N(C(=O)OC(C)C)C(CSC)C(=S)N2 (stereo not drawn) [Example 7-31] | <0.01 µg/mL
CC1C(=S)Nc2ccc(Cl)cc2N1Cc1cccnc1 (stereo not drawn) [Example 7-20] | 0.1 to 1 µg/mL
CCC1C(=S)Nc2ccc(Cl)cc2N1Cc1ccccn1 (stereo not drawn) [Example 7-26] | 0.01 to 0.1 µg/mL
COc1ccc2c(c1)N(C(=O)OC(C)C)C(CSC)C(=O)N2 (stereo not drawn) [Example 3-129] | 0.01 to 0.1 µg/mL
C=C(C)OC(=O)N1c2ccc(Cl)cc2NC(=O)C1(C)C [Example 6-9] | approx. 1 μg/ml

test system: HIV; test: Test of preparations against HIV in cell culture (T-cell culture assay); assay type: cell-based; details: Human immunodeficiency virus 1, 72 h; lowest concentration where no giant cells were observed; HIV-infected lymphocytes from donor blood, 3 days at 37° C.
Protocol: Test of Preparations Against HIV in Cell Culture
Complete medium additionally contains 20% fetal calf serum and 40 IU/ml recombinant interleukin 2.
Lymphocytes which have been isolated from fresh donor blood by means of Ficoll gradient centrifugation are cultured for 36 hours in complete medium with an addition of 2 μg/ml phytohemagglutinin (Wellcome) at 37° C. under 5% of CO2. After 10% of DMSO has been added, the cells are frozen at a density of 5 [formula]10^6 and stored in liquid nitrogen. For the test, the cells are defrosted, washed in RPMI medium and cultured for 3-4 days in the complete medium.
The test preparations were dissolved in DMSO at a concentration of 16.7 mg/ml and diluted in complete medium to 1 mg/ml.
0.4 ml of medium was introduced into 24-multiwell dishes. 0.1 ml of the dissolved preparation was added to the upper row of the dish, and, by transferring 0.1 ml portions, a geometric dilution series was established. Controls without preparation always contained 0.4 ml of complete medium containing 0.5% of DMSO. Lymphocyte cultures with a cell density of 5 [formula]10^5 cells/ml were infected by adding 1/50 volume supernatant from HIV-infected lymphocyte cultures. The titer of these culture supernatants was determined by end-point titration as 1-5 [formula]10^6 infectious units/ml. After 30 minutes' incubation at 37° C., the infected lymphocytes were removed by centrifugation and taken up in an equal volume of medium. From this cell suspension, 0.6 ml aliquots were transferred into all wells of the test plate. The mixtures were incubated for 3 days at 37° C.
The infected cell cultures were examined under the microscope for the presence of giant cells, which indicate active virus multiplication in the culture. The lowest concentration of preparation where no giant cells were observed was determined as inhibitory concentration against HIV. As a control, the supernatants from the culture plates were tested for the presence of HIV antigen with the aid of an HIV antigen test following the manufacturer's instructions (Organon).

MIC | Compound
20 µg/mL (≈ 75.5 µM) | CC(C)=CCN1c2cc(Cl)ccc2NC(=O)[C@H]1C [VI-B, (3R)-6-Chloro-3-methyl-4-N-(3-methyl-2-buten-1-yl)-3,4-dihydroquinoxalin-2(1H)-one]
< 4 µg/mL | CC(C)=CCN1c2ccccc2NC(=O)C1(C)C [Example XX, 3,3-Dimethyl-4-N-(3-methyl-2-buten-1-yl)-3,4-dihydroquinoxalin-2(1H)-one]
0.8 µg/mL (≈ 2.42 µM) | C[C@H]1C(=O)Nc2ccc(Cl)cc2N1C(=O)OCc1ccccc1 [Example III, (3S)-4-N-(Benzyloxycarbonyl)-6-chloro-3-methyl-3,4-di-hydroquinoxalin-2(1H)-one]

same assay, conditions: lowest concentration where no giant cells were observed; HIV-infected lymphocytes from donor blood, 3 days at 37° C.

T-cell culture assay MIC | Compound
<0.8 µg/mL | C=C(C)OC(=O)N1c2cc(Cl)ccc2NC(=O)C1CCSC (stereo not drawn) [Example 3-44]
<0.8 µg/mL | CCC1(CC)C(=O)Nc2cc(C)ccc2N1CC=C(C)C [Example 6-20]
<0.8 µg/mL | C=CCOC(=O)N1c2cc(Cl)ccc2NC(=O)C1CC(C)C (stereo not drawn) [Example 3-48]
>0.8 µg/mL | CC(C)=CCN1c2ccc(F)cc2NC(=O)C1C (stereo not drawn) [Example 3-64]
0.4 µg/mL | CC(C)COC(=O)N1c2cc(Cl)ccc2NC(=O)C1C (stereo not drawn) [Example 3-26]
>0.08 µg/mL | C=C(C)OC(=O)N1c2ccc(F)cc2NC(=O)C1C (stereo not drawn) [Example 3-66]
<0.8 µg/mL | CC1C(=O)Nc2ccc(Cl)cc2N1Cc1ccc(Br)cc1 (stereo not drawn) [Example 10-14]
0.4 µg/mL | C=C(C)OC(=O)N1c2cc(OCCOC)ccc2NC(=O)C1CC (stereo not drawn) [Example 3-33]
<0.8 µg/mL | C=C(C)OC(=O)N1c2cc(C)c(C)cc2NC(=O)C1(C)C [Example 6-36]
0.4 µg/mL | CC1C(=O)Nc2ccc(Cl)cc2N1C1CCC1 (stereo not drawn) [Example 10-4]
>0.8 µg/mL | CC(C)=CCN1c2ccc(Cl)cc2NC(=O)C1C (stereo not drawn) [Example 3-53]
<0.8 µg/mL | CC(C)CCN1c2cc(Cl)ccc2NC(=O)C1C (stereo not drawn) [Example 10-5]
0.4 µg/mL | C=C(C)OC(=O)N1c2ccc(Oc3ccccc3)cc2NC(=O)C1(C)C [Example 6-39]
0.8 µg/mL | CCCC(=O)N1c2cc(Cl)ccc2NC(=O)C1C (stereo not drawn) [Example 3-88]
<0.8 µg/mL | CC=CCOC(=O)N1c2cc(Cl)ccc2NC(=O)C1C (stereo not drawn) [Example 11-1]
>0.8 µg/mL | CC(C)=CCN1c2c(Cl)cccc2NC(=O)C1C (stereo not drawn) [Example 3-52]
<0.08 µg/mL | C=C(C)OC(=O)N1c2ccc(F)cc2NC(=O)C1(C)C [Example 6-32]
>0.8 µg/mL | CCCCC(=O)N1c2cc(Cl)ccc2NC(=O)C1C (stereo not drawn) [Example 3-87]
>0.8 µg/mL | C=C(C)OC(=O)N1c2ccc(OCC)cc2NC(=O)C1(C)C [Example 6-33]
<4.0 µg/mL | C=C(C)OC(=O)N1c2ccc(Cl)cc2NC(=O)C1CCSC (stereo not drawn) [Example 3-62]
0.4 µg/mL | C=CCOC(=O)N1c2cc(Cl)ccc2NC(=O)C1C(C)CC (stereo not drawn) [Example 3-80]
0.8 µg/mL | CC#CCOC(=O)N1c2cc(Cl)ccc2NC(=O)C1C (stereo not drawn) [Example 11-4]
0.16 µg/mL | CC1C(=O)Nc2ccc(Cl)cc2N1Cc1ccccc1 (stereo not drawn) [Example 3-21]
<0.8 µg/mL | CC(C)=CCN1c2cc(F)ccc2NC(=O)C1C (stereo not drawn) [Example 3-67]
>0.4 µg/mL | C=C(C)OC(=O)N1c2ccc(Oc3ccccc3)cc2NC(=O)C1C (stereo not drawn) [Example 3-73]
<0.8 µg/mL | C#CCOC(=O)N1c2cc(Cl)ccc2NC(=O)C1C (stereo not drawn) [Example 11-3]
>0.8 µg/mL | CC(C)=CCN1c2ccc(F)cc2NC(=O)C1(C)C [Example 6-22]

Compound | T-cell culture assay MIC
C=C(C)OC(=O)N1c2ccc(Cl)cc2NC(=S)C1(C)C [Example 7-12] | <0.8 µg/mL
CC(C)=CCN1c2cc(C)c(C)cc2NC(=S)C1(C)C [Example 7-16] | 0.4 µg/mL
C=CCOC(=O)N1c2cc(Cl)ccc2NC(=S)C1C (stereo not drawn) [Example 7-10] | <0.04 µg/mL
C=C(C)OC(=O)N1c2cc(Cl)ccc2NC(=O)C1CC(C)C (stereo not drawn) [Example 3-49] | <0.8 µg/mL
